These are literature values, as cited in patent publication US11883631B2 (priority 2015, dated 2024).

SMILES strings stand for the structures.

For data set [1] the following is noted: in vivo.
For data set [2] the following is noted: in vivo. This is another data set of the same source.
The conditions of data set [3]: EEG monitor effect site; 18-60 yr.
The conditions of data set [4]: 10 mg/s vs 2 mg/s.

As for `CC(C)c1cccc(C(C)C)c1O` [propofol], the “Reductions in systolic blood pressure (SBP)” value (during induction of anesthesia with propofol) is listed as “greater than 25%”. Moreover, the “plasma concentration at which propofol may significantly decrease SBP” value (patients aged 20-85 yr, effect more evident in elderly (>70 yr)) is > 10000 ng/mL. For the same compound, in data set [1], the “effect-site concentration at burst suppression onset” value was “higher than 8 μg/ml”. Besides, in data set [2], the “Propofol concentration associated with awakening from anesthesia” value was < 1.8 µg/mL. Also, in data set [3], the ke0 was 0.456 min⁻¹. Also, the “drop in mean arterial pressure, higher vs lower infusion rate” value in data set [4] is “larger drop in mean arterial pressure”.
